Earlier results on 1 compound are cited in patent US20100009005A1, “Novel acetysalicylic acid formulations” (Flamel Technologies ,S.A., priority 2005, published 2010).

Take `CS(=O)(=O)c1ccc(C2=C(c3ccccc3)C(=O)OC2)cc1` [rofecoxib]: the “time of peak plasma concentrations” value (after oral administration) was 2 to 3 h. For the same compound, under “in vivo”, the half life entry is “about 17 hours”.
